In patent US6461833B1, “Method to detect bacteria” (priority 1995, dated 2002):
Read-outs that look alike come from different tables or passages of the source.

What was measured:
Mycobacterium smegmatis = assay type: cell-based; conditions: for number of plaques observed: 72 hours incubation with drug, M. smegmatis
BCG = assay type: cell-based, M. tuberculosis; conditions: for number of plaques observed: 72 hours incubation with drug, M. tuberculosis
[1] = Isoniazid concentration 0.1 μg/ml
[2] = Isoniazid concentration 1.0 μg/ml
[3] = Isoniazid concentration 10 μg/ml
[4] = Rifampicin concentration 10 μg/ml
[5] = Rifampicin concentration 50 μg/ml
[6] = Rifampicin concentration 100 μg/ml

Row | SMILES | number of plaques observed (Mycobacterium smegmatis; [1]) | number of plaques observed (Mycobacterium smegmatis; [2]) | number of plaques observed (Mycobacterium smegmatis; [3]) | effect on cells judged from numbers of plaques (Mycobacterium smegmatis; isoniazid, all concentrations, only a slight reduction at the highest concentration) | number of plaques observed (BCG; [1]) | number of plaques observed (BCG; [2]) | number of plaques observed (BCG; [3]) | change in numbers of plaques (BCG; higher concentrations of isoniazid) | effect on cells judged from number of plaques versus no drug controls (BCG; lowest concentration of isoniazid) | number of plaques observed (Mycobacterium smegmatis; [4]) | number of plaques observed (Mycobacterium smegmatis; [5]) | number of plaques observed (Mycobacterium smegmatis; [6]) | number of plaques observed (BCG; [4]) | number of plaques observed (BCG; [5]) | number of plaques observed (BCG; [6])
1 | NNC(=O)c1ccncc1 [Isoniazid, isoniazid] | ++ | ++ | + | mostly unaffected | 122 | 40 | 2 | marked reduction in the numbers of plaques | unaffected |  |  |  |  |  | 
2 | CO[C@H]1/C=C/O[C@@]2(C)Oc3c(C)c(O)c4c(O)c(c(/C=N/N5CCN(C)CC5)c(O)c4c3C2=O)NC(=O)/C(C)=C\C=C\[C@H](C)[C@H](O)[C@@H](C)[C@@H](O)[C@@H](C)[C@H](OC(C)=O)[C@@H]1C [Rifampicin, rifampicin] |  |  |  |  |  |  |  |  |  | ++ | 50 | 8 | 4 | 4 | 10
